Entries after “also recorded” stand apart in the source; their conditions may differ.
Test system: FITC-IgG
Experiment: Confocal fluorescence imaging with FITC-IgG
Type: binding
Settings: 2 μM FITC-IgG in PBS pH 7.4
Description: FIGS. 10A-C. […] (A) Image of Rhodamine B fluorescence. (B) Image of FITC fluorescence and (C) merged image of (A) and (B). Scale bar: 20 μm.
To better visualize the interactions between C12-Z33 immunofibers and IgG, labelling the C12-Z33 with the fluorescent dye (Rhodamine B) allows for direct imaging of fluorescent immunofibers and FITC-IgG under a confocal laser scanning microscope. Rhodamine B has been extensively used for staining biomaterials. […] The self-assembled fibrous morphology in PBS was confirmed using TEM (FIG. 9C). 100 μM RB-C12-Z33 diluted from a 1 mM stock solution and 2 μM FITC-IgG were premixed in PBS. 30 μl solution was spotted on a clean microscope slide right before imaging and covered by a coverslip to obtain a thin layer of liquid.

Substance: RB-C12-Z33: Rhodamine B labelled C12-Z33; lysine added at N-terminal of Z33, Rhodamine B and C12 conjugated to its amine groups
- fluorescence of FITC-IgG after incubation (confocal): co-localization of the fluorescence signal; also recorded: co-localization of fluorescence signals
